The results in this text go back to patent publication US20080076926A1, “Process for the preparation of 4-hydroxythieno[2,3-b]pyridine-5-carbonitriles” (priority 2006, published 2008).

Bounds are passed on as bounds.

For `N#Cc1cnc2sc(-c3ccccc3)cc2c1Cl` [Example 16, 4-chloro-2-phenylthieno[2,3-b]pyridine-5-carbonitrile], the melting point was in the range of 202 to 204 °C.
In the case of `Cc1csc2[nH]cc(C#N)c(=O)c12` [Example 3, 3-methyl-4-oxo-4,7-dihydrothieno[2,3-b]pyridine-5-carbonitrile], the melting point is 285 °C.
In turn, `N#Cc1cnc2sc(Br)cc2c1O` [Example 30, 2-bromo-4-hydroxythieno[2,3-b]pyridine-5-carbonitrile] yielded a melting point of over 255 °C.
With `CC(C)c1c(I)sc2ncc(C#N)c(Cl)c12` [Example 8, 4-chloro-2-iodo-3-isopropylthieno[2,3-b]pyridine-5-carbonitrile], the melting point was 177 to 179 °C.
Molecule `Cc1cc2c(Cl)c(C#N)cnc2s1` [Example 10, 4-chloro-2-methylthieno[2,3-b]pyridine-5-carbonitrile] returned a melting point of 110 to 112 °C.
